Source: patent EP1137632B1, “THIOUREA INHIBITORS OF HERPES VIRUSES” (Wyeth, priority 1998, dated 2000)
Converted amounts (≈) assume the structure as drawn.

Columns and labels:
[1] = test system: HCMV recombinant mutant virus; assay: microbe, parasite or virus in culture; format: cell-based, human cytomegalovirus; conditions: Human betaherpesvirus 5, read-out: IC50 (ug/ml) HCMV
Excerpt: Microtiter plate assay. Ninety-six well plate cultures of human foreskin fibroblasts are infected in the presence of inhibitor compound with a HCMV recombinant mutant virus whose genome contains the prokaryotic beta-glucuronidase gene (Jefferson, R. A., S. M. Burgess, and D. Hirsh. 1986. Beta-glucuronidase from Escherichia coli as a gene fusion marker. Proc. Natl. Acad. Sci. USA 83:8447-8451) whose expression is controlled by a viral promoter. An example of such a virus is RV145 (Jones, T. R., V. P. Muzithras, and Y. Gluzman. 1991. Replacement mutagenesis of the human cytomegalovirus genome: US10 and US11 gene products are nonessential. J. Virol. 65:5860-5872). Since it is under the control of a viral promoter, beta-glucuronidase expression is an indirect indicator of growth and replication of HCMV in this assay. At 96 hours post-infection, the infected cell lysates are prepared (using 50mM sodium phosphate [pH7.0] containing 0.1 % Triton X-100 and 0.1% sarkosyl) and assayed for beta-glucuronidase activity using a substrate for the enzyme which when cleaved yields either a product which can be measured colorimetrically in a spectrophotometer or fluorescently in a microfluorimeter. Examples of such substrates are p-nitrophenyl-beta-D-glucuronide and methylumbelliferylglucuronide, respectively. The presence of an antiviral compound is indicated by the reduced expression of the HCMV genome resident beta-glucuronidase gene, compared to the absence of inhibitor. […] Data from this assay generated using varying amounts of inhibitor compound is also used to estimate the IC50 of an inhibitor compound.

[2] = test system: VZV strain Ellen; assay: VZV antiviral (ELISA) assay in human foreskin fibroblast cells; format: cell-based, varicella-zoster virus; conditions: for IC50: Human alphaherpesvirus 3, VZV strain Ellen in HFF cells, read-out: IC50 (ug/ml) VZV; for inhibition at 10 µg/mL: Human alphaherpesvirus 3, Fibroblast, read-out: % inhibition 10 ug/ml VZV
Experimental: VZV antiviral (ELISA) assay
For the generation of stock VZV to be used in the assay, VZV strain Ellen (ATCC #VR-1367) is used to infect human foreskin fibroblast (HFF) cells at low multiplicity (less than 0.1) and incubated overnight at 37°C in 5% CO2. After the overnight incubation, the mixture of uninfected and VZV-infected HFF infected cells are then harvested and added to each well of 96-well plates (3.5x10^4 cells in 100 µl DMEM supplemented with 2% FBS) which contain test compound or the reference standard drug control (in 100µl DMEM supplemented with 2% FBS per well). These cells are incubated for three days at 37°C in 5% CO2, then fixed for ELISA assay. The primary antibody is murine anti-VZV glycoprotein II monoclonal antibody (Applied Biosystems, Inc. #13-145-100) and the secondary antibody is goat anti-mouse IgG linked to β-galactosidase. Thus the extent of viral replication is determined by assessing β-galactosidase activity by quantifying the generation of the 4-methyl umbelliferone fluorescent cleavage product after addition of the methyl umbelliferyl-β-D-galactoside (Sigma #M1633) substrate on a microfluorimeter (365nm for excitation and 450nm for emission). Antiviral activity (IC50) of the test compound is determined by comparing the flourescence obtained in absence of compound to that obtained in the presence of compound.

[3] = test system: HSV-1; assay: HSV antiviral (ELISA) assay in Vero cells; format: cell-based, herpes simplex virus type 1; conditions: Human alphaherpesvirus 1; HSV-1 in Vero cells; read-out: IC50 (ug/ml) HSV
Experimental: HSV antiviral (ELISA) assay
Vero cells (ATCC #CCL-81) are plated on 96-well tissue culture plates at 3.5x10^4 cells per 100µl tissue culture DMEM (Dulbecco's modified Eagle media) supplemented with 2% fetal bovine serum (FBS) in each well. After overnight incubation @ 37°C (in 5% CO2) and 30 minutes prior to infection with HSV-1 (multiplicity of infection equal to 0.006), cells are either untreated, or treated with test compound (multiple concentrations) or reference standard drug control. After approximately 24 hours post-infection incubation @ 37°C (in 5% CO2), cells are fixed for ELISA assay. The primary antibody is murine anti-HSV glycoprotein D monoclonal primary antibody and the secondary antibody is goat anti-mouse IgG linked to β-galactosidase. Thus the extent of viral replication is determined by assessing β-galactosidase activity by quantifying the generation of the 4-methyl umbelliferone fluorescent cleavage product after addition of the methyl umbelliferyl-β-D-galactoside (Sigma #M1633) substrate on a microfluorimeter (365nm for excitation and 450nm for emission). Antiviral activity (IC50) of the test compound is determined by comparing the flourescence obtained in absence of compound to that obtained in the presence of compound.

Work on `Cc1cc(NC(=S)NC(C)c2ccc(Br)cc2)ccc1NC(=O)c1ccccc1F` (stereo not drawn) [Example 1046, N-(4-{3-[1-(4-Bromo-phenyl)-ethyl]-thioureido}-2-methyl-phenyl)-2-fluoro-benzamide] yielded an IC50 [1] of 2.8 µg/mL (≈ 5.76 µM), an IC50 [2] of 0.057 µg/mL (≈ 0.117 µM) and an IC50 [3] of 6.3 µg/mL (≈ 13 µM).

With `CC(NC(=S)Nc1ccc(NC(=O)c2ccccc2F)c(C(F)(F)F)c1)c1cc2ccccc2o1` (stereo not drawn) [Example 1037, N-{4-[3-(1-Benzofuran-2-yl-ethyl)-thioureido]-2-trifluoromethyl-phenyl}-2-fluoro-benzamide] the IC50 [1] was 2 µg/mL (≈ 3.99 µM), the IC50 [2] was 0.027 µg/mL (≈ 0.0538 µM) and the IC50 [3] was 3.6 µg/mL (≈ 7.18 µM).

In the case of `CC(NC(=S)Nc1ccc(NC(=O)c2ccccc2F)c(N(C)C)c1)c1ccc(F)cc1` (stereo not drawn) [Example 1049, N-(2-Dimethylamino-4-{3-[1-(4-fluoro-phenyl)-ethyl]-thioureido}-phenyl)-2-fluoro-benzamide], the IC50 [1] is reported as 4.5 µg/mL (≈ 9.9 µM), the IC50 [2] is reported as 0.07 µg/mL (≈ 0.154 µM) and the IC50 [3] is reported as 8 µg/mL (≈ 17.6 µM).

`Cc1cc(NC(=S)NC(C)c2ccc(F)cc2)ccc1NC(=O)c1nccc2ccccc12` (stereo not drawn) [Example 1072, Isoquinoline-1-carboxylic acid (4-{3-[1-(4-fluoro-phenyl)-ethyl]-thioureido}-2-methyl-phenyl)-amide] was tested, and the IC50 [1] was > 10 µg/mL, the IC50 [2] was 0.027 µg/mL (≈ 0.0589 µM) and the IC50 [3] was > 10 µg/mL.

`COc1cc(OC)c(NC(=S)Nc2ccc(NC(=O)c3ccccc3F)cc2OC)cc1Cl` [Example 389, N-{4-[3-(5-Chloro-2,4-dimethoxy-phenyl)-thioureido]-3-methoxy-phenyl}-2-fluoro-benzamide] was tested, and the IC50 [1] was 1.5 µg/mL (≈ 3.06 µM), the inhibition at 10 µg/mL [2] was 9% and the IC50 [2] was > 10 µg/mL. For the same molecule, the IC50 [3] was 0.04 µg/mL (≈ 0.0816 µM).

`COc1cc(OC)c(NC(=S)Nc2ccc(NC(=O)c3ccccc3F)c(C(F)(F)F)c2)cc1Cl` [Example 402, N-{4-[3-(5-Chloro-2,4-dimethoxy-phenyl)-thioureido]-2-trifluoromethyl-phenyl}-2-fluoro-benzamide] was tested, and the IC50 [1] was 4 µg/mL (≈ 7.58 µM), the inhibition at 10 µg/mL [2] was 13% and the IC50 [2] was > 10 µg/mL. For the same molecule, the IC50 [3] was > 10 µg/mL.

With `CC(NC(=S)Nc1ccc(NC(=O)c2cc3ccccc3cn2)c(C#N)c1)c1ccc(F)cc1` (stereo not drawn) [Example 1071, Isoquinoline-3-carboxylic acid (2-cyano-4-{3-[1-(4-fluoro-phenyl)-ethyl]-thioureido}-phenyl)-amide] the IC50 [1] was > 10 µg/mL, the IC50 [2] was 0.03 µg/mL (≈ 0.0639 µM) and the IC50 [3] was 9 µg/mL (≈ 19.2 µM).

`O=C(Nc1ccc(NC(=S)NNc2cccc(Cl)c2)cc1)c1ccccc1F` [Example 529, N-[4-({[2-(3-Chloro-phenyl)-hydrazino]-thioxomethyl}-amino)-phenyl]-2-fluoro-benzamide] was tested, and the IC50 [1] was 8.5 µg/mL (≈ 20.5 µM), the inhibition at 10 µg/mL [2] was 23% and the IC50 [2] was 9 µg/mL (≈ 21.7 µM). It also gave an IC50 [3] of 1 µg/mL (≈ 2.41 µM).

`CCCCOc1cc(NC(=S)NC(C)c2ccc(C#N)cc2)ccc1NC(=O)c1ccccc1F` (stereo not drawn) [Example 1056, N-(2-Butoxy-4-{3-[1-(4-cyano-phenyl)-ethyl]-thioureido}-phenyl)-2-fluoro-benzamide] was tested, and the IC50 [1] was 2.5 µg/mL (≈ 5.1 µM), the IC50 [2] was 0.4 µg/mL (≈ 0.815 µM) and the IC50 [3] was > 10 µg/mL.

For `CC(NC(=S)Nc1ccc(NC(=O)c2ccccc2F)c(OCc2ccccc2)c1)c1ccc(C#N)cc1` (stereo not drawn) [Example 1050, N-(2-Benzyloxy-4-{3-[1-(4-cyano-phenyl)-ethyl]-thioureido}-phenyl)-2-fluoro-benzamide], the IC50 [1] was > 10 µg/mL, the IC50 [2] was > 7.5 µg/mL and the IC50 [3] was > 10 µg/mL.

In the case of `COc1cc(OC)c(NC(=S)Nc2ccc(NC(=O)c3ccccc3F)c(C)c2)cc1Cl` [Example 310, N-{4-[3-(5-Chloro-2,4-dimethoxy-phenyl)-thioureido]-2-methyl-phenyl}-2-fluoro-benzamide], the IC50 [1] is reported as > 10 µg/mL, the inhibition at 10 µg/mL [2] is reported as 40% and the IC50 [2] is reported as > 10 µg/mL. The IC50 [3] was 2 µg/mL (≈ 4.22 µM).

For `CC(NC(=S)Nc1ccc(NC(=O)c2ccccc2F)c(Cl)c1)c1ccc(C#N)cc1` (stereo not drawn) [Example 1039, N-(2-Chloro-4-{3-[1-(4-cyano-phenyl)-ethyl]-thioureido}-phenyl)-2-fluoro-benzamide], the IC50 [1] was 1.3 µg/mL (≈ 2.87 µM), the IC50 [2] was 0.25 µg/mL (≈ 0.552 µM) and the IC50 [3] was 7.2 µg/mL (≈ 15.9 µM).

For `O=C(Nc1ccc(NC(=S)Nc2ccc(NC(=O)c3ccccc3F)cc2)cc1Cl)c1ccccc1` [Example 401, N-{4-[({[4-(Benzoylamino)-3-chloro-phenyl]-amino}-thioxomethyl)-amino]-phenyl}-2-fluoro-benzamide], the IC50 [1] was 2.5 µg/mL (≈ 4.82 µM), the inhibition at 10 µg/mL [2] was 70% and the IC50 [2] was > 15 µg/mL. The IC50 [3] was > 10 µg/mL.

With `Cc1cc(NC(=O)c2cc(F)c(F)cc2F)ccc1NC(=S)NC(C)c1ccc(F)cc1` (stereo not drawn) [Example 1029, 2,4,5-Trifluoro-N-(4-{3-[1-(4-fluoro-phenyl)-ethyl]-thioureido}-3-methyl-phenyl)-benzamide] the IC50 [1] was > 10 µg/mL, the IC50 [2] was 0.53 µg/mL (≈ 1.15 µM) and the IC50 [3] was > 10 µg/mL.

With `CC(NC(=S)Nc1ccc(NC(=O)c2ccccc2F)c(C(F)(F)F)c1)c1ccc(F)cc1` (stereo not drawn) [Example 1034, 2-Fluoro-N-(4-{3-[1-(4-fluoro-phenyl)-ethyl]-thioureido}-2-trifluoromethyl-phenyl)-benzamide] the IC50 [1] was 2.6 µg/mL (≈ 5.42 µM), the IC50 [2] was 0.03 µg/mL (≈ 0.0626 µM) and the IC50 [3] was > 10 µg/mL.

In the case of `CCOc1cc(NC(=S)NC(C)c2ccc(F)cc2)ccc1NC(=O)c1ccccc1F` (stereo not drawn) [Example 1060, N-(2-Ethoxy-4-{3-[1-(4-fluoro-phenyl)-ethyl]-thioureido}-phenyl)-2-fluoro-benzamide], the IC50 [1] is reported as > 10 µg/mL, the IC50 [2] is reported as 0.26 µg/mL (≈ 0.571 µM) and the IC50 [3] is reported as > 10 µg/mL.

`Cc1c(C)c(NC(=S)NC(C)c2ccc(F)cc2)c(C)c(C)c1NC(=O)c1ccccc1F` (stereo not drawn) [Example 1023, 2-Fluoro-N-(4-{3-[1-(4-fluoro-phenyl)-ethyl]-thioureido}-2,3,5,6-tetramethyl-phenyl)-benzamide] was tested, and the IC50 [1] was 9 µg/mL (≈ 19.2 µM), the IC50 [2] was 10 µg/mL (≈ 21.4 µM) and the IC50 [3] was > 10 µg/mL.

With `COc1cc(OC)c(NC(=S)Nc2ccc(NC(=O)c3ccccc3F)cc2C(F)(F)F)cc1Cl` [Example 359, N-{4-[3-(5-Chloro-2,4-dimethoxy-phenyl)-thioureido]-3-trifluoromethyl-phenyl}-2-fluoro-benzamide] the IC50 [1] was > 10 µg/mL, the inhibition at 10 µg/mL [2] was 59% and the IC50 [2] was > 10 µg/mL. The IC50 [3] was 0.6 µg/mL (≈ 1.14 µM).

For `COc1cc(OC)c(NC(=S)Nc2cc(C)c(NC(=O)c3ccccc3F)cc2Cl)cc1Cl` [Example 327, N-{5-Chloro-4-[3-(5-chloro-2,4-dimethoxy-phenyl)-thioureido]-2-methyl-phenyl}-2-fluoro-benzamide], the IC50 [1] was > 10 µg/mL, the inhibition at 10 µg/mL [2] was 42% and the IC50 [2] was > 10 µg/mL. The IC50 [3] was > 10 µg/mL.

In the case of `COc1cc(C)c(Cl)cc1NC(=S)Nc1ccc(NC(=O)c2ccccc2F)c(C)c1` [Example 394, N-{4-[3-(5-Chloro-2-methoxy-4-methyl-phenyl)-thioureido]-2-methyl-phenyl}-2-fluoro-benzamide], the IC50 [1] is reported as > 10 µg/mL, the inhibition at 10 µg/mL [2] is reported as 36% and the IC50 [2] is reported as > 10 µg/mL. For the same molecule, the IC50 [3] was 0.2 µg/mL (≈ 0.437 µM).

For `COc1cc(OC)c(NC(=S)Nc2ccc(NC(=O)c3ccccc3F)c(C#N)c2)cc1Cl` [Example 277, N-{4-[3-(5-Chloro-2,4-dimethoxy-phenyl)-thioureido]-2-cyano-phenyl}-2-fluoro-benzamide], the IC50 [1] was > 10 µg/mL, the inhibition at 10 µg/mL [2] was 0% and the IC50 [2] was > 10 µg/mL. The IC50 [3] was > 10 µg/mL.
